The subject of one assay is TNF-α. In words: Inhibition of TNF-α secretion from LPS stimulated peripheral blood mononuclear cells. Format: cell-based. Conditions: PBMC; LPS stimulated human peripheral blood mononuclear cells, 18 hours, ELISA; read-out: The median inhibition concentration (IC50, nM) of TNF-α. The method, then:
(§1) To study the effect of compounds of the present invention in vitro the inhibition of the IL-1β and TNF-α secretion was measured using the following procedure:
(§2) Cytokine production was measured in the media from lipopolysaccharide (LPS) stimulated peripheral blood mononuclear cells. The mononuclear cells were isolated from human peripheral blood by Lymphoprep® (Nycomed, Norway) fractionation and suspended in RPMI 1640 (growth medium) with foetal calf serum (FCS, 2%), at a concentration of 5×10^5 cells/ml. The cells were incubated in 24-well tissue culture plates in 1 ml aliquots. Test compounds were dissolved in dimethylsulfoxide (DMSO, 10 mM) and were diluted with the medium. Compounds were added to the cells for 30 minutes, then LPS ([…] final concentration) was added. The plates were incubated for 18 hours, and the concentration of IL-1β and TNF-α in the medium was determined by enzyme-linked immunosorbent assays. The median inhibitory concentrations (IC50) of the compounds were calculated.
On the technique in general: An ELISA detects its analyte on a solid surface through an enzyme-linked reagent.

In the next assay the test system is IL-1β. In words: Inhibition of IL-1β secretion from LPS stimulated peripheral blood mononuclear cells. Format: cell-based. The conditions noted are these: PBMC; LPS stimulated human peripheral blood mononuclear cells, 18 hours, ELISA; read-out: The median inhibition concentration (IC50, nM) of IL-1β. The method, then: as §1, §2
The next assay has as its system PMN-superoxide. Nature of the assay: Inhibition of PMN superoxide secretion (ferricytochrome C reduction). Format: cell-based. The conditions noted are these: human PMN granulocytes primed with TNF-α, stimulated with fMLP; read-out: The median inhibition concentration (IC50, nM) of PMN-superoxide. As for the experimental part: The compounds of the present invention also show similar activities in the ability to inhibit PMN (polymorphonuclear) superoxide secretion which is also indicative of potentially useful anti-inflammatory drugs. The compounds were tested using the following procedure:
Human polymorphonuclear (PMN) granulocytes were isolated from human blood by dextran sedimentation, Lymphoprep® fractionation and hypotonic lysis of contaminating erythrocytes.
Superoxide anion generation was measured as the superoxide dismutase inhibitable reduction of ferricytochrome C (Madhu, S.B. et al, Inflammation, 16, 241, (1992)). The cells were suspended in Hanks' balanced salt solution, and incubated for 10 minutes at 37° C. with test compounds. The cells were primed by the addition of TNF-α (3 ng/ml final concentration) for 10 minutes, and then ferricytochrome C, (final concentration 750 μg/ml), bovine serum albumin (BSA, final concentration 1 mg/ml) and formyl-methionyl-leucyl-phenylalanine (fMLP, final concentration 10^−7 M) were added for 3 minutes. The cells were chilled on ice, and were spun down. The optical densities in the cell-free supernatant was measured in a spectrophotometer. The median inhibitory concentration (IC50) of the compounds was calculated.

A further assay has as its target T1, p38α MAP kinase (Homo sapiens, UniProt Q16539).
T1 construct: made in house; host or cells: COS-1 cells (transient co-transfection, anti-FLAG immunoprecipitation)
Nature of the assay: p38α MAP kinase assay. Format: biochemical. Conditions: immunoprecipitated activated FLAG-p38α from COS-1 cells, GST-ATF-2 substrate; read-out: p38 MAP kinase IC50. As for the experimental part:
COS-1 cells (derived from African green monkey kidney fibroblast-like cell containing wild-type T antigen under control of the SV40 promotor) were obtained from ATCC (ATCC no. CRL-1650) and grown in growth medium (DMEM without phenolred, 10% FCS, 2 mM L-glutamine, 100U penicillin and 100 μg streptomycin/ml) at 37° C. with 5% CO2. The cells were passaged twice a week by trypsination (0.25% trypsin, 1 mM EDTA in PBS) and were split 1:10. The medium was changed every second or third day. The cell line was regularly tested with the Mycoplasma PCR Primer Set (Stratagene) and found to be free of Mycoplasma. Tissue culture media, FCS, L-glutamine and penicilin and streptomycin are from Bribco BRL, Gaithersburg, Md., USA.
Transient Expression of COS-1 Cells
On day one COS-1 cells were seeded in 143 cm^2 petridish with a density of 2×10^4celler/cm^2 in growth medium. At day 2 the cells were co-transfected with 5 μg (total) of experimental plasmid DNA, expressing the FLAG-p38α and FLAG-MKK6(EE). The plasmids were introduced into the COS-1 cells in serum-free medium using DOTAP™ (Boehringer-Mannheim, Mannheim, Germany). Plasmid DNA was prepared and purified using the QIAGEN EndoToxin-free Maxiprep-500 kit (Hilden, Germany). Briefly, DNA and DOTAP™ were mixed for exactly 15 min. at 37° C. in the CO2 incubator. […]

Among the data in US20030073832A1, “Novel aminophenyl ketone derivatives” (priority 2001, published 2003) are IC50 values, retold here.

T1 sequence (Q16539 whole entry): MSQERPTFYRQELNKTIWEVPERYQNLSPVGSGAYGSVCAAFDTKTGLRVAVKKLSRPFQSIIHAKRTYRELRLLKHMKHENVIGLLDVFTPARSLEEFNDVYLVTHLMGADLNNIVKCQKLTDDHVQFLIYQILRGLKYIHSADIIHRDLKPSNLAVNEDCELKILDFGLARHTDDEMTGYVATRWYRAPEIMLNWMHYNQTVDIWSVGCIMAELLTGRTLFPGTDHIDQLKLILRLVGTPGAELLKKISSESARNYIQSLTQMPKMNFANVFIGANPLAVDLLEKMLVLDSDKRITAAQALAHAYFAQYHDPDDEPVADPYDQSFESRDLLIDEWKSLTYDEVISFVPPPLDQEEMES

Regarding `Cc1ccccc1Nc1ccc(C(=O)c2sccc2Cl)c(Cl)c1` [Compound 101, 4-(2-tolylamino)-2-chlorophenyl 3-chloro-2-thienyl ketone], the IC50 was determined as 17 nM with TNF-α, 72 nM in the assay with IL-1β, 6.3 nM with PMN-superoxide and 93.3 nM on p38α MAP kinase.
`Cc1ccccc1C(=O)c1ccc(Nc2ccccc2N)cc1Cl` [Ref. comp., 4-(2-aminophenylamino)-2-chloro-2′-methylbenzophenone, reference compound]: the IC50 in the assay with TNF-α was found to be 7.1 nM; in the assay on IL-1β, 13 nM; in the assay with PMN-superoxide it was 5 nM.
